Consider 48 compounds from PubChem BioAssay AID179 (DTP/NCI, 2004).

A word on the EC50: it is the concentration that produces a half-maximal response. Usually IC50 stands for the concentration needed to halve the response being measured.

Activity calls are given as the source filed them.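 Rule for the calls: active = compounds giving half or more protection of infected cells from virus-caused growth loss, again on retest; inactive = the rest.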 Where a SMILES comes first, the peptide text is derived from it. [ ]: non-standard residue; d: D form. The star is where a group is joined. ξ: configuration not given here. Phe(4-NO2) = N[CH](Cc1ccc([N+](=O)[O-])cc1)C(=O)O; ξD = NC(CC(=O)O)C(=O)O; Ac3c = NC1(C(=O)O)CC1; Boc = CC(C)(C)OC(=O)*; OSu = O=C1CCC(=O)N1O*; OBn = c1ccc(CO*)cc1

This assay has as its system CEM cells HIV-1 protection, formazan growth assay. Description: NCI AIDS Antiviral Assay. As to conditions: for IC50: measured here: growth of uninfected CEM cells. How it is done:
The ability of compounds to protect human CEM cells from HIV-1 infection is measured as a screen for new compounds capable of inhibiting the HIV virus. Five concentrations of drug were tested on uninfected and infected cells and cell growth was measured using a soluble formazan assay. […] Compounds that provided at least 50% protection were retested. Compounds that provided at least 50% protection on retest were listed as moderately active. Compounds that reproducibly provided 100% protection were listed as confirmed active. […] Note that the inability to provide protection could be due to toxicity.

Turning to `[Cu+2].[O-]/N=C/c1ccc[oH+]1.[O-]/N=C/c1ccc[oH+]1`, the EC50 was above 200 µM and the IC50 worked out at 11.7 µM. Taken in the same sequence, the figures for `CCc1cccc(C(C)(C)C)c1NC(=S)N/C=C(\c1ccccc1)S(=O)Cc1ccccc1` (configuration not stated) were 182 µM and above 200 µM. The corresponding values for `COC(OC)[C@@H]1OC[C@@H](O)[C@@H]1n1cnc2c(N)ncnc21` are above 200 µM and above 200 µM.

In the case of `C#CC1(O)CCC2C3CCC4=Cc5oncc5CC4(C)C3CCC21C` (configuration not stated), the EC50 was above 200 µM and the IC50 was 39.8 µM.

Regarding `O=c1[nH]nc2ccccc2c1Cc1ccccc1`, the EC50 was above 151 µM and the IC50 is above 151 µM. As for `O=[N+]([O-])c1ccc(OCn2ncc3ccc([N+](=O)[O-])cc32)cc1`, the EC50 is above 200 µM and the IC50 was above 200 µM. For the compound `COC(=O)C1(NC(=O)C(CC(=O)OCc2ccccc2)NC(=O)OC(C)(C)C)CC1` (configuration not stated) (Boc-[ξD](OBn)-[Ac3c]-OMe), the EC50 was above 200 µM and the IC50 was above 200 µM. `N#CC(C#N)c1ccc(C(=O)N2CCC[C@H]2CO)cc1`: the result was inactive.

On to `CC1=C(/C=C/C(C)=C/C2CC(N(C)C)=CC(=O)O2)C(C)(C)CCC1` (configuration not stated), for which the result was inactive. With `CCCCCCCCCCCc1cc(=O)c2c(O)cccc2o1`, the EC50 was above 14.8 µM and the IC50 was above 14.8 µM. Consider `Cc1cccc(NC(=O)CC(=O)N2N=C(N3c4ccccc4Sc4ccccc43)CC2c2ccccc2)c1` (configuration not stated), for which the EC50 was above 151 µM and the IC50 is above 151 µM. On to `CCCCN(C)C(=O)C1=C(C)NC(C)=C(C(=O)N(C)CCCC)C1`, for which the EC50 is above 200 µM and the IC50 is 102 µM.

Turning to `Cc1nc(Nc2ccccc2Cl)c2ccsc2n1`, the result was inactive.

For the compound `Nc1nnc2nc(CC(=O)/C=C/c3ccccc3)c(=O)[nH]n12`, the EC50 was above 170 µM and the IC50 is above 170 µM.

`CCC1(N=[N+]=[N-])C(=O)c2ccccc2N(c2ccccc2)C1=O` (configuration not stated): the EC50 was above 200 µM and the IC50 is above 200 µM. With `NCCCCC(NC(=O)C(N)Cc1ccc(O)cc1)C(=O)NC(Cc1ccc(O)cc1)C(=O)NC(CCCCN)C(=O)ON1C(=O)CCC1=O` (configuration not stated) (H-YKYK-OSu; configuration not given here), the EC50 was above 200 µM and the IC50 was above 200 µM. For the compound `CC(C)C[CH2][Ge]([CH2]CC(C)C)([CH2]CC(C)C)[CH2]CC(C)C`, the EC50 was above 200 µM and the IC50 was above 200 µM.

As for `O=C1c2ccccc2-c2nccc3ccnc1c23`, the result was inactive. With `COC(=O)CCC(NC(=O)C(CCC(=O)OC)NC(=O)C(CCC(=O)OC)NC(=O)C(CCC(=O)OC)NC(=O)C(CCC(=O)OC)NC(=O)C(Cc1ccc([N+](=O)[O-])cc1)NC(=O)C(CCC(=O)OC)NC(=O)C(CCC(=O)OC)NC(=O)C(CCC(=O)OC)NC(=O)C(CCC(=O)OC)NC(=O)C(CCC(=O)OC)NC(C)=O)C(N)=O` (configuration not stated) (Ac-E(OMe)E(OMe)E(OMe)E(OMe)E(OMe)[Phe(4-NO2)]E(OMe)E(OMe)E(OMe)E(OMe)E(OMe)-NH2; configuration not given here), the EC50 was above 100 µM and the IC50 was above 100 µM. Regarding `O/N=C1/CCC/C1=C\c1ccccc1`, the outcome was inactive.

On to `CCCN1C(=O)CNC(=O)c2[nH]cnc21`, for which the outcome was inactive. Take `COC(=O)C12C=CC(C1)n1c(=O)n(-c3ccccc3)c(=O)n12` (configuration not stated): the EC50 was above 295 µM and the IC50 is 275 µM.

Take `N#CC1(Cl)CC2CC1C1N=NN(c3ccccc3)C21` (configuration not stated): the EC50 is above 200 µM and the IC50 was above 200 µM. As for `CCCCCCCCCCCCn1[nH]c(C)c(C(=S)SCCCCCCCC)c1=O`, the EC50 is above 57.5 µM and the IC50 worked out at 56.2 µM. Taken in the same sequence, the figures for `NC1CCC(N(CC(=O)O)CC(=O)O)C(N(CC(=O)O)CC(=O)O)C1` (configuration not stated) were above 200 µM and 112 µM. On to `O=[N+]([O-])c1ccccc1Nc1ccccc1`, for which the outcome was inactive. The same measure, in the same setting: next, `Cn1c(=O)nc2n(-c3ccc(Cl)cc3)c(-c3ccccc3)c(-c3ccccc3)nc-2c1=O`: “inactive”. For the compound `CCOC(=O)/C(=C\n1c(=O)sc2ccccc21)C(=O)c1ccccc1`, the EC50 is above 200 µM and the IC50 worked out at 42.7 µM. The corresponding values for `COc1ccc(NC(=O)/C(CC2=Nc3ccc([N+](=O)[O-])cc3NC2O)=N\NC(=O)C[N+](C)(C)C)c(OC)c1` (configuration not stated) are above 45.7 µM and above 45.7 µM. As to `CCCCCC=C(c1cc(Br)c(O)c(C(=O)O)c1)c1cc(Br)c(O)c(C(=O)O)c1`, the EC50 is above 813 µM and the IC50 is 151 µM. The corresponding values for `CC(C)=CCC(O)[C@](C)(O)[C@H]1[C@H](O)C[C@@]2(C)[C@@H]3CCc4cc(O)c(OC5OC(CO)C(O)C(O)C5O)cc4C3(C)C(=O)C[C@]12C` (some centres not stated) are above 200 µM and above 200 µM.

Consider `CC(=O)Oc1ccn2nc(C)c(Br)c2c1`, for which the EC50 was above 200 µM and the IC50 was determined as 93.3 µM. Taken in the same sequence, the figures for `CC(OC(C)(C)C)[C@H](NC(=O)OC(C)(C)C)C(=O)O` (some centres not stated) were above 275 µM and above 275 µM. Taken in the same sequence, the figures for `CC(=O)NC1=NC(=O)/C(=C/c2ccc3c(c2)OCO3)N1C` were above 200 µM and above 200 µM.

For `CCC12C=CCN(C1)C(=O)Cc1c([nH]c3ccccc13)/C(=N/NC(=O)OC)C2` (configuration not stated), the EC50 is above 52.5 µM and the IC50 is above 52.5 µM. On to `SCc1ccc(-c2ccc(CS)cc2)cc1`, for which the EC50 was above 4.27 µM and the IC50 was above 4.27 µM. On to `CSc1ccc(Cc2cc(C(C)(C)C)cc(C(C)(C)C)c2O)cc1`, for which the outcome was inactive.

As to `CCOC(=O)c1ccc(NC(=O)O/N=C(/Cl)CCl)cc1`, the EC50 was above 200 µM and the IC50 turned out to be 18.6 µM. For the compound `CC(C)C1=C(O)C2=C(C(=O)C1=O)C1(C)CCCC(C)(C)C1C(O)C2OC=O` (configuration not stated), the EC50 was above 200 µM and the IC50 worked out at 10.2 µM. The corresponding values for `CC(C)OC(=O)[C@@H]1OC(C)(C)O[C@H]1C(=O)OC(C)C` are above 200 µM and above 200 µM. Taken in the same sequence, the figures for `CCOC(=O)C1N=[N+](c2ccccc2)C(=O)/C1=C\n1c(=S)[nH]c2ccc([N+](=O)[O-])cc21` (configuration not stated) were above 200 µM and 107 µM.

Regarding `NC(=O)c1nnc2ccc(F)cc2c1N`, the EC50 was above 200 µM and the 50% inhibitory concentration (IC50) worked out at 70.8 µM. Taken in the same sequence, the figures for `O=C(CCc1nc(=S)[nH][nH]1)Nc1cc(Cl)ccc1Cl` were above 407 µM and above 407 µM. The corresponding values for `CCCCC/C=C\CCC/C=C\CCCCCCOP(=O)(O)OCCC=C(c1cc(Cl)c(O)c(C(=O)O)c1)c1cc(Cl)c(O)c(C(=O)O)c1` are above 126 µM and 83.2 µM. Taken in the same sequence, the figures for `COC(=O)C(C(=O)C(=O)Nc1ccc(C(F)(F)F)cc1[N+](=O)[O-])c1csc(-n2nc(-c3ccccc3)cc2-c2ccccc2)n1` (configuration not stated) were above 53.7 µM and 39.8 µM.

As to `Cc1ccc(S(=O)(=O)N2CCCSCCSCCCN(S(=O)(=O)c3ccc(C)cc3)CC2)cc1`, the EC50 is above 13.2 µM and the IC50 is above 13.2 µM. With `COc1ccc(/C=C2/C(=O)N(/C=C3\C(=O)Oc4ccccc4C3=O)C(=NC(C)=O)N2C)cc1OC`, the EC50 is above 200 µM and the IC50 came out at 126 µM. Consider `CC1OC(n2cc(F)c(=O)[nH]c2=O)C=CC1=O` (configuration not stated), for which the EC50 is above 1050 µM and the IC50 came out at 14.1 µM.
